Holding throughout (assay type): cell-based
The test system of assay [1] is CLIP occupancy of MHC class II (HLA-DR) on CIITA-4 melanoma cells, WM9 melanoma cells and Raji B cells. The experiment in a line: Flow cytometry of surface CLIP and HLA-DR (CLIP/HLA-DR ratio) after HDACi treatment. The conditions noted are these: 5 μM Entinostat or 3 μM Vorinostat, 40 hours, vs DMSO. Here is the method:
To determine whether HDACi's could affect anti-tumor immunity, major histocompatibility (MHC) class II positive melanoma cells were treated with HDACi's and assayed for potential alterations in the binding of MHC class II to antigenic peptides. More specifically, melanoma cells were treated with Entinostat or Vorinostat, two HDACi's currently used to treat patients. The CIITA-4 melanoma cells were previously transformed with an expression vector for the MHC class II transactivator, CIITA, which leads to constitutive MHC class II expression. The WM9 melanoma cells have naturally occurring CIITA and MHC class II expression. Raji B cells also constitutively express both CIITA and MHC class II.
Cells were cultured in RPMI (antibiotic supplements and 10% fetal calf serum) and treated with either DMSO, 5 μM Entinostat, 3 μM Vorinostat, or 400 units/ml IFN-γ. […] Surface expression of HLA-DR, the most significant MHC class II protein, was detected using flow cytometry. Surface expression of the class II associated invariant chain peptide (CLIP) was also detected using flow cytometry. […]
Samples were analyzed on a BD LSR II flow cytometer (San Jose, Calif.) equipped with 405 nm, 488 nm and 633 nm lasers using BD FacsDiva 6.1.3 software. FITC, PE and DAPI dyes were detected using 530/30, 575/26 and 450/50 band pass filters, respectively. […]
In general terms: Flow cytometry measures light scatter and fluorescence of single cells or particles in a stream.

The test system of assay [2] is cathepsin L1 mRNA in Raji B-cells. Briefly: RT-PCR assay of cathepsin L1 mRNA in Raji B-cells. As to conditions: normalized to GAPDH mRNA and DMSO, 40 hours. Here is the method:
(§1) An RT-PCR assay of cathepsin L1 mRNA was performed in treated Raji B-cells. More specifically, RNA was extracted from the DMSO, Entinostat, Vorinostat, and IFN-γ treated Raji B-cells described in Example 1 using an RNeasy Mini Kit< Qiagen cat #74106. RNA quality was verified using a bioanalyzer (Agilent). Reverse transcription of total RNA (1 μg) to cDNA was done with a High Capacity RNA-to-cDNA Master Mix (Applied Biosystems part of Life Technologies, Foster City, Calif., catalog number 4390777). In a 0.2 ml PCR tube, 5×Complete Master Mix (4.0 μl) and nuclease-free H20 were mixed with 1 μg RNA for a total reaction volume of 20 μL. The sample was incubated at 25° C. for 5 minutes, 42° C. for 30 minutes and then 85° C. for 5 minutes in a DNA Engine Peltier thermal cycler (Bio-Rad). qPCR target related: cathepsin L1, CTSL1, RefSeq-NM13 001912.4, amplicon length-85 bp, Assay ID Details-Hs00377632_ml; Cathepsin S, CTSS, RefSeq-NM_004079.4, amplicon length-70 bp, Assay ID Details Hs00175407_ml; GAPDH-glyceraldehyde-3-phosphate dehydrogenase, Gapdh, RefSeq-NM_00246.3, amplicon length-58 bp, Assay ID Details-Hs03929097_gl.
(§2) All primers and probes were from Applied Biosystems Assay-on-Demand. […] The GAPDH was used as an endogenous control for relative qPCR quantification. […]

The subject of assay [3] is cathepsin L1 mRNA in WM9 melanoma cells. Briefly: RT-PCR assay of cathepsin L1 mRNA in WM9 melanoma cells. As to conditions: normalized to GAPDH mRNA and DMSO.
The subject of another assay is cathepsin S mRNA. The experiment in a line: RT-PCR assay of cathepsin S mRNA. As to conditions: normalized to GAPDH mRNA and DMSO. How it is done: as §1, §2
For the next assay, the system named is Cathepsin L1. Briefly: Cathepsin L1 antibody (ctsl1) staining intensity, bright field microscopy. As to conditions: 5 μM Entinostat vs DMSO; p-value <0.0004. How it is done:
In FIG. 6, samples were viewed with a Leica DMLB upright bright field microscope and a 20×/0.5NA HC PL fluortar objective (Leica Microsystems GmbH, Wetzlar, Germany). Transmitted bright light was used without contrasting methods. Gain, offset, and other acquisition settings were identical for all samples within each group. The number of nuclei was determined with auto-threshold segmentation on the cell morphology. The nuclei segmentation was further refined by size and shape of the objects created from the initial segmentation. ImagePro Plus v6.1 (Media Cybernetics, Bethesda, Md.) software was then used to determine the ctsl1 staining intensity (ctsl1 is cathepsin L1 antibody). Positive cells were established as >20DR over background for each 8bit image (0-255DR). The number of pixels over this threshold per cell was used to determine the differences between the Entinostat and DMSO groups. Each image and analysis was blinded and completed in triplicate (p-value <0.0004).

Regarding `O=C(CCCCCCC(=O)Nc1ccccc1)NO` [Vorinostat, Suberoylanilide hydroxamic acid], the “amount of CLIP associated with MHC Class II on the APC surface (CLIP occupancy)” value in assay [1] is listed as “reduction in the amount of CLIP”. Also, the “cathepsin L1 mRNA induction” value in assay [2] and in assay [3] was “no effect” throughout. In addition, in the assay on cathepsin S mRNA, the “cathepsin S mRNA induction” value is reported as “no effect”.

As for `Nc1ccccc1NC(=O)c1ccc(CNC(=O)OCc2cccnc2)cc1` [Entinostat], in assay [1], the “amount of CLIP associated with MHC Class II on the APC surface (CLIP occupancy)” value is “reduction in the amount of CLIP”. Also, the “cathepsin L1 mRNA induction” value in assay [2] and in assay [3] was “induces cathepsin L1 mRNA” throughout. The “cathepsin S mRNA induction” value with cathepsin S mRNA is reported as “no effect”. Besides, the “induction of Cathepsin L1 (ctsl1 staining intensity, FIG. 5)” value with Cathepsin L1 was “significant induction”.

(Values after US20140370510A1, “MODULATION OF PEPTIDOME USING HISTONE DEACETYLASE INHIBITOR” (University of South Florida (A Florida Non-Profit …, priority 2012, published 2014).)
